The record followed here is EP0043811A1, “Indolo-naphthyridines and their use as medicaments” (OMNICHEM Société anonyme, priority 1980, dated 1982).

Molecules are shown by their SMILES.

Series [1] can be described thus: Acute toxicity (LD50) in mice, intravenous. The following applies: mouse, in vivo, read-out: DL50 iv. An excerpt:
Les composés de l'invention ont été administrés sous forme de chlorhydrate par voie intraveineuse à des souris de souche Charles River. Les doses létales 50 % (DL50) ont été déterminées graphiquement selon la méthode de Lichtfield et Wilcoxon (J. Pharmacol.Exp. Thérap. […]).

The test system of series [2] is souris, de souche Charles River. The experiment in a line: Hypobaric anoxia test in mice (survival time). In kind it is in vivo. The following applies: ratio of DL50/DE50 of the product to DL50/DE50 of vincamine; DE50 = dose raising mean survival time by 50 %; p.o. 30 min before test; 190 mm Hg (5,25 % oxygen). On the procedure: Des souris de même sexe, de souche Charles River, pesant environ 20 + 2 g sont réparties en trois lots de 10 animaux. Les lots 1 et 2 comportent les animaux traités, c'est à dire ayant reçu la substance à tester de l'invention. Un troisième lot comporte des animaux témoins.
Les composés étudiés sont administrés p.o. 30 minutes avant l'essai. Les animaux sont placés dans une atmosphère appauvrie en oxygène par réalisation d'un vide partiel (190 mm Hg, correspondant à 5,25 % d'oxygène), ces conditions étant obtenues en 30 secondes). On mesure le temps de survie des souris au moyen d'un chronomètre. Les agents capables de favoriser l'oxygénation tissulaire et en particulier cérébrale, entraînent un accroissement du temps de survie et l'on peut exprimer par la dose efficace 50 % (DE50), la dose qui augmente de 50 % le temps de survie moyen des animaux placés dans les conditions décrites ci-dessus.
L'indice vincaminique correspond au rapport de la ^DL50/D^E50 du produit à la DL5ODE50 de la vincamine. Le tableau suivant rassemble les doses léthales et les indices vincaminiques observés pour divers composés de la présente invention.

The subject of series [3] is chien anesthésié au Nembutal. The experiment in a line: Haemodynamics and cerebral oxygen consumption in the dog anaesthetised with Nembutal. In kind it is in vivo. An excerpt:
Chez le chien anesthésié au Nembutal, les composés de l'invention, en particulier Ib', augmentent les débits sanguins artériels des artères fémorales et vertébrales et stimulent de façon marquée (+ 50 %) la consommation apparente du cerveau en oxygène. L'effet sur la fréquence cardiaque est par ailleurs peu marqué, contrairement au cas de la vincamine.

Series [4] concerns ptose palpébrale induite par la réserpine. The experiment in a line: Reserpine-induced palpebral ptosis test in mice. In kind it is in vivo, souris. To be noted: mouse. The source says:
Le canthène Ib s'est en outre révélé très actif au test à la ptose palpébrale induite par la réserpine che la souris. […] La combinaison des propriétés antianoxiques et antidépressives confèrent aux composés de l'invention un intérêt thérapeutique original.

The next series relates to monoamine oxydase. The experiment in a line: Monoamine oxidase inhibitor (IMAO) character, method not described.

In the case of `CCN1CCc2c3n(c4ccccc24)C(O)CCC31` (stereo not shown) [Exemple 2, Hydroxy-6 éthyl-3 1,2,3,3a,4,5 hexahydro 6H indolo (3, 2,1, -de) 1,5 naphtyridine], in series [1], the LD50 turned out to be 21 mg/kg. In series [2], the ind.vincam. hypobare was determined as 2.

As for `CCN1CCc2c3n(c4ccccc24)CCCC31` (stereo not shown) [Exemple 4, Ethyl-3 hexahydro-1,2,3,3a,4,5-6H indolo (3,2,1-de) 1,5 naphtyridine], the LD50 in series [1] was found to be 14 mg/kg. Further, in series [2], the ind.vincam. hypobare was 2.

For the molecule `CCN1CCc2c3n(c4ccccc24)C=CCC31` (stereo not shown) [Exemple 3, Ethyl-3 tétrahydro-1,2,3,3a 4H indolo (3,2,1-de) 1,5 naphtyridine], in series [1], the LD50 is 46 mg/kg. In series [2], the ind.vincam. hypobare is reported as 2 (Ib'). Moreover, the “débits sanguins artériels des artères fémorales et vertébrales” value in series [3] is “augmentent”. The “effet sur la fréquence cardiaque” value in series [3] (stated in contrast to vincamine) is on record as “peu marqué”. The “test à la ptose palpébrale induite par la réserpine” value in series [4] is “très actif”. For the same molecule, in the series on monoamine oxydase, the “caractéristique d'inhibiteur de monoamine oxydase (IMAO)” value is reported as “aucune caractéristique d'inhibiteur de monoamine oxydase”.
